Test results from EP0938471B1, “THE PREPARATION AND USE OF ORTHO-SULFONAMIDO ARYL HYDROXAMIC ACIDS AS MATRIX METALLOPROTEINASE AND TACE INHIBITORS” (priority 1996, dated 1998).
Where a name gives a salt, the structure may show the parent alone. Read-outs that look alike come from different tables or passages of the source.

Experiments:
TACE = TACE (Homo sapiens, UniProt P78536); assay: TACE inhibition (fluorescent peptidyl substrate); type: biochemical; conditions: for inhibition at 1 µM: at 1µM concentration
MMP-9 [1] = molecular target: T1, MMP-9 (Homo sapiens, UniProt P14780); assay: In vivo MMP inhibition (enzyme in implanted dialysis tubing); parameters: species or system rat (Sprague-Dawley) or mouse (CD-1)
Experimental: A 2 cm piece of dialysis tubing (molecular weight cut-off 12-14,000, 10 mm flat width) containing matrix metalloproteinase enzyme (stromelysin, collagenase or gelatinase in 0.5 mL of buffer) is implanted either ip or sc (in the back) of a rat (Sprague-Dawley, 150-200g) or mouse (CD-1,25-50g) under anesthesia. Drugs are administered PO, IP, SC or IV through a canula in the jugular vein. Drugs are administered in a dose volume of 0.1 to 0.25 mL/animal. Contents of the dialysis tubing is collected and enzyme activity assayed. Enzyme reaction rates for each dialysis tube are calculated. Tubes from at least 3 different animals are used to calculate the mean± sem. Statistical significance (p<0.05) of vehicle-treated animals versus drug-treated animals is determined by analysis of variance. (Agents and Actions 21: 331, 1987).

MMP-9 [2] = molecular target: T1, MMP-9; assay: MMP-9 inhibition (thiopeptide or fluorescent peptide substrate assay); type: biochemical; conditions: for IC50: read-out: MMP-9 IC50; for inhibition at 1 µM: read-out: MMP-9 % inhibition, footnote: 1µM
MMP-13 = MMP-13 (Homo sapiens, UniProt P45452); assay: MMP-13 inhibition (thiopeptide or fluorescent peptide substrate assay); type: biochemical; conditions: for MMP-13 % inhibition: concentration given as (.1), unit not given
MMP-1 = molecular target: T2, MMP-1 (Homo sapiens, UniProt P03956); assay: MMP-1 inhibition (thiopeptide or fluorescent peptide substrate assay); type: biochemical; conditions: for IC50: read-out: MMP-1 IC50; for MMP-1 % inhibition: concentration given as (10), unit not given
T2 sequence (P03956 100-469): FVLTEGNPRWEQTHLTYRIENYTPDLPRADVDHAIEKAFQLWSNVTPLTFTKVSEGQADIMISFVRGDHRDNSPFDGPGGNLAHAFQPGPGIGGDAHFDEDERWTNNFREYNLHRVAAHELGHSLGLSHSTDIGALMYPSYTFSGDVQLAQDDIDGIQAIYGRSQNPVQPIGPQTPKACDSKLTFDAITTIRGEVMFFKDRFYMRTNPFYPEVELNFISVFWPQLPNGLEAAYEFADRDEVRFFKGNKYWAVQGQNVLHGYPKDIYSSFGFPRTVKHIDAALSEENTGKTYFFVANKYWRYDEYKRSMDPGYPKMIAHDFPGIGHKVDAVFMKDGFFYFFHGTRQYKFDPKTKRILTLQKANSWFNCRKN

cartilage = assay: Cartilage degradation in the rat (cartilage-sponge implant); type: in vivo, rat (Lewis strain); conditions: average daily dose 50 mg/kg, intraperitoneal osmotic minipump; for % Inhibition of Cartilage Collagen Loss: * = p<0.05 vs vehicle-treated rats
Experimental: Twenty mg slices of cartilage are obtained from the knee of freshly slaughtered cattle. Discs of cellulose sponge, 6 mm in diameter, are cut and a 2 mm hole put in the center of the sponge. 100 µl of a sterile suspension containing 1 mg of heat-killed Mycobacterium tuberculosis is applied to the sponge. After air-drying overnight, the sponges are autoclaved and a cartilage slice is placed in the hole cut in the sponge disc. Under sterile conditions, the cartilage-sponge disc is placed subcutaneously in the back of an anesthetized rat (Lewis strain, 200 to 250 g). The incision is closed with staples and the rat allowed to recover from anesthesia. Approximately 5 days after sponge implantation, osmotic minipumps (Alza Corp., Palo Alto, CA), containing either investigational compound or vehicle were implanted intraperitoneally in the anesthetized rat under sterile conditions After 19 days, the rats are euthanized by asphyxiation with CO2 and the granulomas containing the implanted sponge excised from the surrounding tissue.
The weight of the piece of cartilage recovered from the sponge was recorded and the collagen content of the cartilage was determined. The mean of the cartilage weights and collagen content was determined for the vehicle and drug-treated groups. The inhibition of cartilage weight and collagen content loss produced by the compounds compared with vehicle-treated rats was determined. Statistical significance (p< 0.05) of vehicle-treated animals versus drug-treated animals was determined by analysis of variance.
Reference: Bishop J., Greenham AK., Lewis EJ. A novel in vivo model for the study of cartilage degradation. J. Pharmacol. Toxicol. Methods, 30:19-25, 1993.

[3] = 100 mg/kg, ip (intraperitoneal)

T1 sequence (P14780 94-707): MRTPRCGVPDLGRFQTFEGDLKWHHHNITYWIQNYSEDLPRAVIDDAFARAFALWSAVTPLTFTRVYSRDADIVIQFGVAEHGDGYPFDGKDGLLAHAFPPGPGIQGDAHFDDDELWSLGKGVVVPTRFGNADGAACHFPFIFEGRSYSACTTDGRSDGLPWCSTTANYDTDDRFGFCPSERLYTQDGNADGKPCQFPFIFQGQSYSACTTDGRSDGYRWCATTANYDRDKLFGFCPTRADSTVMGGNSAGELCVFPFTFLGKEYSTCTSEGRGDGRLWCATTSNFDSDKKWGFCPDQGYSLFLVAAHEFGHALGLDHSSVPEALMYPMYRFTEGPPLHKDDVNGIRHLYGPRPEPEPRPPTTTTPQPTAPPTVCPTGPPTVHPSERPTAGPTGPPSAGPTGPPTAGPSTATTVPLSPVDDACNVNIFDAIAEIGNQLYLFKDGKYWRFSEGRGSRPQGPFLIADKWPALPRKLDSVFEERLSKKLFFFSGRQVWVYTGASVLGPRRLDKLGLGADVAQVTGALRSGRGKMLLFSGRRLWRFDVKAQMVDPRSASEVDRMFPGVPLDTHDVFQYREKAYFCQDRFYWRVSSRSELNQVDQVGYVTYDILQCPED
TACE, sequence (P78536 215-824): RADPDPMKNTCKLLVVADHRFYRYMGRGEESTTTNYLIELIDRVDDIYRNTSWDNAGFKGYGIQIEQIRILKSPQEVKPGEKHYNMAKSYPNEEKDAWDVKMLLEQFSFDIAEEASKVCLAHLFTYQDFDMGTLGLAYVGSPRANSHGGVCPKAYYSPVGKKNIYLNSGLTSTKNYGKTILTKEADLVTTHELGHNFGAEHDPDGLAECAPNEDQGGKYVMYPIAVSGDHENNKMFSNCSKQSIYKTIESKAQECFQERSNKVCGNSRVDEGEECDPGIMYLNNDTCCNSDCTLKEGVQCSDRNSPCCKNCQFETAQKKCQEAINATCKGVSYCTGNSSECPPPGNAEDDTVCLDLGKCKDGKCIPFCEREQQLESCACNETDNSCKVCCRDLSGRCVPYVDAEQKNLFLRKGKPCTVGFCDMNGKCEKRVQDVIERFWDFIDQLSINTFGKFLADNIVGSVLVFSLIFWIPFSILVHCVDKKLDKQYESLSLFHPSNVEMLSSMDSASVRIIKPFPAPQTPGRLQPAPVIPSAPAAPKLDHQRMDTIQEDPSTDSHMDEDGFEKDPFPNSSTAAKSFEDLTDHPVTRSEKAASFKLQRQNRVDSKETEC

Row | Compound | IC50 (MMP-13; read-out: MMP-13 IC50) [nM] | inhibition at 1 µM (TACE) [%] | IC50 (TACE; read-out: TACE IC50) [nM] | IC50 (MMP-9 [2]) [nM] | IC50 (MMP-1) [nM] | further results
1 | COc1ccc(S(=O)(=O)N(Cc2ccccc2)c2c(C)cc(Br)cc2C(=O)NO)cc1 [Example 25, 2-[Benzyl-(4-methoxy-benzenesulfonyl)-amino]-5-bromo-N-hydroxy-3-methyl-benzamide] |  |  | > 1000 |  |  | in-vivo MMP % inhibition vs. MMP-9 (MMP-9 [1]; [3]): 32%(100), ip
2 | COc1ccc(S(=O)(=O)N(Cc2cccnc2)c2c(C)cccc2C(=O)NO)cc1 [Example 61, N-Hydroxy-2-[(4-methoxy-benzenesulfonyl)-pyridin-3-ylmethyl-amino]-3-methyl-benzamide] |  |  | 289 |  |  | in-vivo MMP % inhibition vs. MMP-9 (MMP-9 [1]; 20 mg/kg, po (oral)): 46(20), po %; in-vivo MMP % inhibition vs. MMP-9 (MMP-9 [1]; 50 mg/kg, po (oral)): 59(50), po %
3 | COc1ccc(S(=O)(=O)N(Cc2cccnc2)c2c(C)cccc2C(=O)NO)cc1 [Example 83, N-Hydroxy-2-[(4-methoxy-benzenesulfonyl)-pyridin-3-ylmethyl-amino]-3-methyl-benzamide] |  |  |  |  |  | % Inhibition of Cartilage Weight Loss (cartilage): 44.6%; % Inhibition of Cartilage Collagen Loss (cartilage): 51.2* %
4 | COc1ccc(S(=O)(=O)N(C)c2c(CN3CCN(C)CC3)cc(Br)cc2C(=O)NO)cc1 [Example 313, 5-Bromo-N-hydroxy-2-[(4-methoxy-benzenesulfonyl)-methyl-amino]-3-(4-methyl-piperazin-1-ylmethyl)-benzamide] |  |  |  | 1.4 | 180 | % Inhibition of Cartilage Weight Loss (cartilage): 45.5%; % Inhibition of Cartilage Collagen Loss (cartilage): 28.0* %; IC50 (TACE): 26 nM
5 | COc1ccc(S(=O)(=O)N(Cc2cccnc2)c2c(C)cc(-c3cccc([N+](=O)[O-])c3)cc2C(=O)NO)cc1 [Example 400, 4-[(4-Methoxy-benzenesulfonyl)-pyridin-3-ylmethyl-amino]-5-methyl-3'-nitro-biphenyl-3-carboxylic acid hydroxyamide hydrochloride salt] | 4.9 |  | 231 | 6 | 295 | 
6 | COc1ccc(-c2cc(C)c(N(Cc3cccnc3)S(=O)(=O)c3ccc(OC)cc3)c(C(=O)NO)c2)cc1 [Example 401, 4'-Methoxy-4-[(4-methoxy-benzenesulfonyl)-pyridin-3-ylmethyl-amino]-5-methyl-biphenyl-3-carboxylic acid hydroxyamide hydrochloride salt] | 2.8 |  | 146 | 1.4 | 176 | 
7 | COc1ccc(S(=O)(=O)N(Cc2cccnc2)c2c(C)cc(-c3cc4ccccc4s3)cc2C(=O)NO)cc1 [Example 402, 5-Benzo[b]thiophen-2-yl-N-hydroxy-2-[(4-methoxy-benzenesulfonyl)-pyridin-3-ylmethyl-amino]-3-methyl-benzamide hydrochloride salt] | 8.5 |  | 639 | 2.6 | 543 | 
8 | COc1ccc(S(=O)(=O)N(Cc2cccnc2)c2c(C)cc(-c3ccc(OC(F)(F)F)cc3)cc2C(=O)NO)cc1 [Example 404, 4-[(4-Methoxy-benzenesulfonyl)-pyridin-3-ylmethyl-amino]-5-methyl-4'-trifluoromethoxy-biphenyl-3-carboxylic acid hydroxyamide hydrochloride salt] | 9.5 | 54 |  | 5.9 | 1800 | 
9 | COc1ccc(S(=O)(=O)N(Cc2cccnc2)c2c(C)cc(-c3ccc4c(c3)OCO4)cc2C(=O)NO)cc1 [Example 405, 5-Benzo[1,3]dioxol-5-yl-N-hydroxy-2-[(4-methoxy-benzenesulfonyl)-pyridin-3-ylmethyl-amino]-3-methyl-benzamide hydrochloride salt] | 5.8 |  | 151 | 4.1 | 176 | 
10 | N-Hydroxy-2-[(4-methoxy-benzenesulfonyl)-pyridin-3-ylmethyl-amino]-5-methyl-3-thiophen-2-yl-benzamide [Example 145] | 3 |  | 158 | 7 | 55 | 

Further lines, with some results ahead:

Row | IC50 (MMP-13; read-out: MMP-13 IC50) [nM] | inhibition at 1 µM (TACE) [%] | Compound | IC50 (TACE; read-out: TACE IC50) [nM] | IC50 (MMP-9 [2]) [nM] | IC50 (MMP-1) [nM] | further results
11 | 69 |  | COc1ccc(S(=O)(=O)N(Cc2ccccc2)c2c(OCc3ccccc3)cccc2C(=O)NO)cc1 [Example 34, 2-[Benzyl-(4-methoxy-benzenesulfonyl)-amino]-3-benzyloxy-N-hydroxy-benzamide] | > 1000 | 28 | 281 | in-vivo MMP % inhibition vs. MMP-9 (MMP-9 [1]; [3]): 31.6(100), ip %
12 | 20 |  | COc1ccc(S(=O)(=O)N(Cc2cccnc2)c2c(C)cc(Br)cc2C(=O)NO)cc1 [Example 91, 5-Bromo-N-hydroxy-2-[(4-methoxy-benzenesulfonyl)-pyridin-3-ylmethyl-amino]-3-methyl-benzamide] |  | 24 |  | in-vivo MMP % inhibition vs. MMP-9 (MMP-9 [1]; 100 mg/kg, po (oral)): 55(100), po %
13 | 10 |  | CCCN(c1c(C)cc(C)cc1C(=O)NO)S(=O)(=O)c1ccc(OC)cc1 [Example 117, N-Hydroxy-2-[(4-methoxy-benzenesulfonyl)-propyl-amino]-3,5-dimethyl-benzamide] | 154 | 10 | 114 | in-vivo MMP % inhibition vs. MMP-9 (MMP-9 [1]; [3]): 28.3(100), ip %
14 |  | 2 | Cc1cccc(C(=O)NO)c1N(Cc1cccnc1)S(=O)(=O)c1ccc(-c2ccc(C(F)(F)F)cc2)cc1 [Example 410, N-Hydroxy-3-methyl-2-[pyridin-3-ylmethyl-(4'-trifluoromethyl-biphenyl-4-sulfonyl)-amino]-benzamide] |  |  |  | inhibition at 1 µM (MMP-9 [2]): 28%; MMP-13 % inhibition (MMP-13): 40%(.1); MMP-1 % inhibition (MMP-1): 47%(10)
15 |  | 9 | COc1ccc(-c2ccc(S(=O)(=O)N(Cc3cccnc3)c3c(C)cccc3C(=O)NO)cc2)c(OC)c1 [Example 411, 2-[(2',4'-Dimethoxy-biphenyl-4-sulfonyl)-pyridin-3-ylmethyl-amino]-N-hydroxy-3-methyl-benzamide] |  |  |  | inhibition at 1 µM (MMP-9 [2]): 39%; inhibition at 1 µM (MMP-13; read-out: MMP-13 % inhibition, footnote: 1µM): 44%; MMP-1 % inhibition (MMP-1): 32%(10)
16 |  | 3 | Cc1cccc(C(=O)NO)c1N(Cc1cccnc1)S(=O)(=O)c1ccc(-c2cccs2)cc1 [Example 412, N-Hydroxy-3-methyl-2-[pyridin-3-ylmethyl-(4-thiophen-2-yl-benzenesulfonyl)-amino]-benzamide] |  |  |  | inhibition at 1 µM (MMP-9 [2]): 44%; MMP-13 % inhibition (MMP-13): 42%(.1); MMP-1 % inhibition (MMP-1): 69%(10)
17 | 75 | 43 | C#Cc1ccc(S(=O)(=O)N(Cc2cccnc2)c2c(C)cccc2C(=O)NO)cc1 [Example 413, 2-[(4-Ethynyl-benzenesulfonyl)-pyridin-3-ylmethyl-amino]-N-hydroxy-3-methyl-benzamide] |  | 55 | 529 | 
18 | 38 | 6 | Cc1cccc(C(=O)NO)c1N(Cc1cccnc1)S(=O)(=O)c1ccc(-c2cc3ccccc3s2)cc1 [Example 414, 2-[(4-Benzo[b]thiophen-2-yl-benzenesulfonyl)-pyridin-3-ylmethyl-amino]-N-hydroxy-3-methyl-benzamide] |  |  |  | inhibition at 1 µM (MMP-9 [2]): 68%; MMP-1 % inhibition (MMP-1): 29%(10)
19 |  | 9 | Cc1cccc(C(=O)NO)c1N(Cc1cccnc1)S(=O)(=O)c1ccc(-c2ccc3c(c2)OCO3)cc1 [Example 415, 2-[(4-Benzo[1,3]dioxol-5-yl-benzenesulfonyl)-pyridin-3-ylmethyl-amino]-N-hydroxy-3-methyl-benzamide] |  |  |  | inhibition at 1 µM (MMP-9 [2]): 43%; IC50 (MMP-13): 26 nM; MMP-1 % inhibition (MMP-1): 37%(10)
